According to paper PMC9688530, “Development of Ic-ELISA and Colloidal Gold Lateral Flow Immunoassay for the Determination of Cypermethrin in Agricultural Samples” (Biosensors, 2022):

Assays:
anti-CYP mAb 2G7H9 = assay: ic-ELISA based on mAb 2G7H9; format: binding, mouse; settings: CR = IC50 of CYP/IC50 of analogue × 100%
Method: The ic-ELISA procedure was executed according to previous studies. Each well of the ELISA plate was coated with 100 μL of coating antigen diluted with carbonate buffer (0.05 mol/L, pH 9.6) at 4 °C overnight. After washing three times with phosphate-buffered saline (PBS, 0.01 mol/L, pH 7.4) containing 1‰ Tween-20, the wells were blocked with 200 μL of 5% skim milk powder in PBS at 37 °C for two hours. After the same washing procedure, 50 μL of CYP standard solution and 50 μL of mAb were pipetted into each well and incubated at 37 °C for one hour. After washing five times, 100 μL per well of 0.5‰ horseradish peroxidase-labeled goat anti-mouse IgG antibody in PBS was added and incubated at 37 °C for one hour. After the wells were washed five times, 100 μL per well of fresh substrate solution (0.1 mg/mL 3,3′,5,5′-tetramethylbenzidine and 0.024‰ H2O2 in 0.1 M citrate acid buffer) was added to react at 37 °C for 15 min. Then, 50 μL per well of 0.2 mol/L H2SO4 was used to stop the reaction, and the absorbances were read at 450 nm with a microplate reader.
Under the optimal conditions, a standard curve was constructed using a series of concentrations of standard solutions (50, 25, 12.5, 6.25, 3.13, 1.56, 0.78, 0.39 and 0.20 ng/mL) to assess the sensitivity of ic-ELISA. The IC50 and linear range (IC10–IC90) were calculated by a logistic equation established with Origin Pro 8.0.
The CRs of the ic-ELISA were calculated with the following equation:CR (%) = (IC50 of CYP/IC50 of analogues) × 100%.

anti-CYP mAb = assay: colloidal gold LFIA strip; format: binding, mouse; settings: for CR of LFIA: CR = vLOD of CYP/vLOD of analogue × 100%; for visual limit of detection (vLOD): optimal buffer
Method: Colloidal gold particles were synthesized with trisodium citrate as a reducing agent according to our previous work. For the preparation of colloidal gold mAb, 6.65 μg/mL anti-CYP mAbs were added to the colloidal gold solution adjusted to pH 8.2 using 0.2 mol/L K2CO3 with shaking at room temperature for 1 h. BSA (1%) was used to block free colloidal gold particles. After 1 h, the mixture was centrifuged at 12,000 revolutions per minute (RPM) for 15 min to remove free anti-CYP mAbs. The centrifuged deposits were resuspended using one-tenth of the original volume of sodium borate solution (0.01 mol/L) containing 2% BSA and 3% sucrose and preserved at 4 °C.
As depicted in Figure 1A, the LFIA strip was assembled into four components. The center section of a PVC plate was affixed to an NC membrane. The sample pad and absorption pad were stuck on both ends of the PVC plate, and both overlapped with the NC membrane by 1 mm. A total of 2 mg/mL of hapten 5-BSA and 0.5 mg/mL of GAMA were sprayed onto the NC membrane as the test line and control line, respectively, with 5 mm intervals by an automatic dispenser. After drying at 37 °C for 12 h, the fabricated cards were cut into 4 mm wide LFIA strips.
One hundred microliters of the CYP standard solution and 4 μL of the colloidal gold mAb solution were added into a micropore and mixed. After 5 min, an LFIA strip was inserted into the mixture solution. During the mixed solution migration from the sample pad to the absorbent pad, colloidal gold mAb was captured by the T and C lines, resulting in the appearance of color bands within 10 min. When the T line disappeared or the color intensity of the T line was lower than that of the C line, the result was positive (Figure 1B,C). When the color intensity of the T line was not less than that of the C line, the result was negative (Figure 1D).
The sensitivity of the LFIA strip was evaluated by a series of CYP standard solutions (0.7, 0.6, 0.5, 0.4, 0.3, 0.2, 0.1, 0 μg/mL). For qualitative analysis, the sensitivity of the LFIA strip was appraised by the visual LOD (vLOD) and the cut-off value. The vLOD is the lowest concentration of CYP at which the lighter color of the T line is observed compared to the C line. The cut-off value is the minimum CYP concentration at which no color band appears on the T line.
The CRs of the LFIA were calculated with the following equation:CR (%) = (vLOD of CYP/vLOD of analogues) × 100%.

SMILES	Cross-reactivity rate (%) of ic-ELISA (anti-CYP mAb 2G7H9)	CR of LFIA (anti-CYP mAb)	visual limit of detection (vLOD) (anti-CYP mAb)
CC1(C)C(C=C(Cl)Cl)C1C(=O)OC(C#N)c1ccc(F)c(Oc2ccccc2)c1 (stereo not drawn) [cyfluthrin]	31.09%	30%	1 µg/mL
CC1(C)C(/C=C(\Cl)C(F)(F)F)C1C(=O)OC(C#N)c1cccc(Oc2ccccc2)c1 (stereo not drawn) [cyhalothrin]	16.15%	3%	10 µg/mL
